Tests used:
Test in all cases: relative viability (nuclei count vs DMSO), 5 days (fraction); higher = more cells survive
DM3189 + Olaparib = compound: C1CN(CCN1)C2=CC=C(C=C2)C3=CN4C(=C(C=N4)C5=CC=NC6=CC=CC=C56)N=C3 [DM3189] + O=C(c1cc(Cc2n[nH]c(=O)c3ccccc23)ccc1F)N1CCN(C(=O)C2CC2)CC1 [Olaparib] (partner 8 µM)
Outline: (§1)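 Five library-drug doses in √10 steps were combined with a fixed anchor-drug dose, or a single drug was given alone, by pin tool to lung cancer cell lines in 1536-well plates the day after seeding. Nuclei were stained and counted after 5 days. Relative viability is the nuclei count in treated wells over that in vehicle wells, taken as the median of duplicate plates.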

DM3189 + Lapatinib = compound: C1CN(CCN1)C2=CC=C(C=C2)C3=CN4C(=C(C=N4)C5=CC=NC6=CC=CC=C56)N=C3 [DM3189] + CS(=O)(=O)CCNCc1ccc(-c2ccc3ncnc(Nc4ccc(OCc5cccc(F)c5)c(Cl)c4)c3c2)o1 [Lapatinib] (partner 2 µM)
Outline: as §1

DM3189 + Phenformin = compound: C1CN(CCN1)C2=CC=C(C=C2)C3=CN4C(=C(C=N4)C5=CC=NC6=CC=CC=C56)N=C3 [DM3189] + N=C(N)NC(=N)NCCc1ccccc1 [Phenformin] (partner 250 µM)
Outline: as §1

DM3189 + Pemetrexed = compound: C1CN(CCN1)C2=CC=C(C=C2)C3=CN4C(=C(C=N4)C5=CC=NC6=CC=CC=C56)N=C3 [DM3189] + Nc1nc2[nH]cc(CCc3ccc(C(=O)N[C@@H](CCC(=O)O)C(=O)O)cc3)c2c(=O)[nH]1 [Pemetrexed] (partner 0.2 µM)
Outline: as §1

DM3189 + Palbociclib = compound: C1CN(CCN1)C2=CC=C(C=C2)C3=CN4C(=C(C=N4)C5=CC=NC6=CC=CC=C56)N=C3 [DM3189] + CC(=O)c1c(C)c2cnc(Nc3ccc(N4CCNCC4)cn3)nc2n(C2CCCC2)c1=O [Palbociclib] (partner 0.5 µM)
Outline: as §1

| Cell Line | relative viability (DM3189 + Olaparib; first compound 0.08 µM) | relative viability (DM3189 + Olaparib; first compound 0.253 µM) | relative viability (DM3189 + Olaparib; first compound 0.8 µM) | relative viability (DM3189 + Olaparib; first compound 2.53 µM) | relative viability (DM3189 + Lapatinib; first compound 0.08 µM) | relative viability (DM3189 + Lapatinib; first compound 0.253 µM) | relative viability (DM3189 + Lapatinib; first compound 0.8 µM) | relative viability (DM3189 + Lapatinib; first compound 2.53 µM) | relative viability (DM3189 + Phenformin; first compound 0.08 µM) | relative viability (DM3189 + Phenformin; first compound 0.253 µM) | relative viability (DM3189 + Phenformin; first compound 0.8 µM) | relative viability (DM3189 + Phenformin; first compound 2.53 µM) | relative viability (DM3189 + Pemetrexed; first compound 0.08 µM) | relative viability (DM3189 + Pemetrexed; first compound 0.253 µM) | relative viability (DM3189 + Pemetrexed; first compound 0.8 µM) | relative viability (DM3189 + Pemetrexed; first compound 2.53 µM) | relative viability (DM3189 + Palbociclib; first compound 0.08 µM) | relative viability (DM3189 + Palbociclib; first compound 0.253 µM) | relative viability (DM3189 + Palbociclib; first compound 0.8 µM) | relative viability (DM3189 + Palbociclib; first compound 2.53 µM) |
| --- | --- | --- | --- | --- | --- | --- | --- | --- | --- | --- | --- | --- | --- | --- | --- | --- | --- | --- | --- | --- |
| 201T | 0.822 | 0.882 | 0.859 | 0.765 | 1.06 | 1.03 | 0.998 | 1.03 | 0.482 | 0.429 | 0.388 | 0.431 | 0.347 | 0.322 | 0.279 | 0.331 | 0.419 | 0.364 | 0.342 | 0.366 |
| A549 | 0.286 | 0.332 | 0.236 | 0.29 | 0.916 | 1.01 | 1.01 | 1 | 0.151 | 0.162 | 0.206 | 0.136 |  |  |  |  |  |  |  |  |
| A-427 | 0.832 | 0.753 | 0.512 | 0.807 | 1.08 | 1.03 | 0.983 | 0.929 | 0.344 | 0.297 | 0.284 | 0.227 | 1.17 | 0.897 | 0.954 | 1 | 0.593 | 0.492 | 0.474 | 0.524 |
| ABC-1 | 1.04 | 0.594 | 0.676 | 0.718 | 1.3 | 1.06 |  | 0.931 | 0.256 | 0.233 | 0.216 | 0.176 |  |  |  |  | 0.713 | 0.642 | 0.498 | 0.553 |
| BEN | 1.13 | 1.12 | 0.852 | 1.08 | 0.707 | 0.699 | 0.703 | 0.708 | 0.237 | 0.312 | 0.268 | 0.287 | 0.985 | 0.72 | 0.776 | 0.796 | 0.497 | 0.484 | 0.441 | 0.545 |
| CAL-12T | 0.713 | 0.618 | 0.681 | 0.803 | 0.623 | 0.675 | 0.616 | 0.947 | 0.588 | 0.571 | 0.526 | 0.703 | 1.2 | 1.06 | 1.09 | 0.921 | 0.713 | 0.335 | 0.451 | 0.352 |
| COR-L23 | 0.439 | 0.264 | 0.245 | 0.303 | 1.08 | 0.962 | 0.514 | 0.743 | 0.472 | 0.439 | 0.402 | 0.408 | 0.181 | 0.179 | 0.174 | 0.21 | 0.292 | 0.242 | 0.201 | 0.192 |
| COR-L 105 | 0.855 | 0.772 | 0.545 | 0.812 | 0.432 | 0.362 | 0.312 | 0.281 | 0.534 | 0.53 | 0.433 | 0.297 | 1.13 | 1.22 | 1.26 | 1.13 | 0.408 | 0.441 | 0.353 | 0.489 |
| ChaGo-K-1 | 0.48 | 0.393 | 0.369 | 0.439 |  |  |  |  | 0.53 | 0.467 | 0.455 | 0.432 | 0.255 | 0.266 | 0.261 | 0.264 | 0.947 | 0.908 | 0.914 | 0.964 |
| EKVX | 1.06 |  | 0.517 | 0.814 | 0.201 | 0.183 | 0.228 | 0.245 | 0.251 | 0.224 | 0.218 | 0.242 | 0.499 |  | 0.302 | 0.368 | 0.402 |  | 0.291 | 0.393 |
| EMC-BAC-2 | 0.5 | 0.455 | 0.339 | 0.492 | 0.894 | 0.888 | 0.859 | 0.934 | 0.554 | 0.495 | 0.456 | 0.436 | 0.47 | 0.395 | 0.406 | 0.486 | 0.515 | 0.494 | 0.484 | 0.525 |
| EPLC-272H | 0.669 | 0.714 | 0.735 | 0.565 | 1.1 | 0.842 | 0.933 | 0.762 | 0.284 | 0.293 | 0.25 | 0.276 | 0.275 | 0.318 | 0.338 | 0.276 | 0.321 | 0.318 | 0.343 | 0.341 |
| H3255 | 0.576 | 0.573 | 0.547 | 0.627 | 0.259 | 0.267 | 0.224 | 0.277 | 0.305 | 0.422 | 0.338 | 0.376 | 0.682 | 0.537 | 0.555 | 0.559 | 0.37 | 0.313 | 0.308 | 0.329 |
| HARA | 1.23 | 0.733 | 0.579 | 0.654 | 0.93 | 0.625 | 0.6 | 0.856 | 0.515 | 0.42 | 0.391 | 0.568 | 0.239 | 0.205 | 0.227 | 0.232 | 0.288 | 0.194 | 0.225 | 0.263 |
| HCC-15 | 0.737 | 0.724 | 0.518 | 0.591 | 0.983 | 0.843 | 0.81 | 0.816 | 0.555 | 0.437 | 0.41 | 0.435 | 0.219 | 0.208 | 0.207 | 0.211 | 0.832 | 0.721 | 0.675 | 0.844 |
| HCC-44 | 0.996 | 0.918 | 0.944 | 0.931 | 1.13 | 0.743 | 0.792 | 1.02 | 0.218 | 0.155 | 0.178 | 0.153 | 0.606 | 0.602 | 0.581 | 0.622 | 0.898 | 0.976 | 0.798 | 0.951 |
